Source: patent publication US10947252B2, “Inhibitors of KEAP1-Nrf2 protein-protein interaction” (Janssen Pharmaceutica NV, priority 2018, dated 2021)
pEC50, pKd: −log10 of the molar value.

Columns and labels:
[1] = test system: Glo-Response ARE-luc2P HEK293 cell line; assay: ARE luciferase reporter cell-based assay; settings: Homo sapiens, HEK293, 24 h, average of results obtained;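 further: luciferase signal tracks Nrf2 activation of the ARE once compounds disrupt KEAP1-Nrf2 binding, read with One-Glo reagent, DMSO serving as low control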
[2] = biological target: Kelch domain of human KEAP1 (321-624 aa) (Homo sapiens (Human), UniProt Q14145); assay: KEAP1 KELCH ThermoFluor binding assay; settings: KEAP Kelch […], 1,8-ANS, pH 7.0, average of results obtained, read-out: Tf Kd;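 further: Ligand-induced melting temperature shift of E. coli-expressed KEAP1 Kelch protein, Kd estimated from concentration-response curves of ΔTm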
Sequence of Kelch domain of human KEAP1 (321-624 aa) (Q14145 321-624): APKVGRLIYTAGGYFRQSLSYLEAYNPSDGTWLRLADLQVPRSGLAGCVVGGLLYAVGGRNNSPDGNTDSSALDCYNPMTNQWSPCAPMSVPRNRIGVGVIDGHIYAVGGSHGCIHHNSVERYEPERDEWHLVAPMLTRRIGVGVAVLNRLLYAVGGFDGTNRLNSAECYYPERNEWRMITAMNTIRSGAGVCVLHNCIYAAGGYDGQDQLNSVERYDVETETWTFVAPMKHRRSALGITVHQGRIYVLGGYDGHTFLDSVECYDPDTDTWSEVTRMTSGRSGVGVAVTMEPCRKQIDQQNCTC

Compound	pEC50 [1]	pKd [2]
Cc1ccc(C(CC(=O)O)c2ccn3c(C(F)(F)F)nnc3c2C)cc1CN1C[C@H]2CN(C)CCN2c2ncccc2S1(=O)=O (mixture of isomers) [Example 180, (R/S)-3-(4-Methyl-3-(((*R)-9-methyl-5,5-dioxido-7,7a,8,9,10,11-hexahydro-6H-pyrazino[2,1-d]pyrido[2,3-f][1,2,5]thiadiazepin-6-yl)methyl)phenyl)-3-(8-methyl-3-(trifluoromethyl)-[1,2,4]triazolo[4,3-a]pyridin-7-yl)propanoic Acid]	5.54	6.72
Cc1ccc([C@H](CC(=O)O)c2ccn3c(C(F)(F)F)nnc3c2C)nc1CN1C[C@H]2CCCCN2c2ncc(C#N)cc2S1(=O)=O (single isomer, unassigned) [Example 36, (*R)-3-(6-(((*R)-3-Cyano-5,5-dioxido-7,7a,8,9,10,11-hexahydro-6H-dipyrido[2,1-d:2′,3′-f][1,2,5]thiadiazepin-6-yl)methyl)-5-methylpyridin-2-yl)-3-(8-methyl-3-(trifluoromethyl)-[1,2,4]triazolo[4,3-a]pyridin-7-yl)propanoic Acid]	7.82	> 9.00
Cc1ccc([C@H](CC(=O)O)c2ccn3c(C(F)(F)F)nnc3c2C)cc1CN1CC2(CC2)Oc2ncccc2S1(=O)=O (single isomer, unassigned) [Example 7, (*S)-3-(3-((1′,1′-Dioxidospiro[cyclopropane-1,4′-pyrido[2,3-b][1,4,5]oxathiazepin]-2′(3′H)-yl)methyl)-4-methylphenyl)-3-(8-methyl-3-(trifluoromethyl)-[1,2,4]triazolo[4,3-a]pyridin-7-yl)propanoic Acid]	7.13	9.90
Cc1ccc(C(CC(=O)O)c2ccc3c(nnn3CC3CC3)c2C(F)F)cc1CN1CC2CCCN2c2ncccc2S1(=O)=O (centres unmarked) [Example 65]	6.44	8.60
Cc1ccc([C@@H](CC(=O)O)c2ccc3c(nnn3CC3CC3)c2C)cc1CN1C[C@H]2CCCCN2c2ncccc2S1(=O)=O (single isomer, unassigned) [Example 235, (*R)-3-(1-(Cyclopropylmethyl)-4-methyl-1H-benzo[d][1,2,3]triazol-5-yl)-3-(3-(((*R)-5,5-dioxido-7,7a,8,9,10,11-hexahydro-6H-dipyrido[2,1-d:2′,3′-f][1,2,5]thiadiazepin-6-yl)methyl)-4-methylphenyl)propanoic Acid]	8.72	> 9.00
Cc1ccc([C@H](CC(=O)O)c2ccn3c(C(F)(F)F)nnc3c2C)cc1CN1CC2(CC2)Oc2nc(N(C)CCCO)ccc2S1(=O)=O (single isomer, unassigned) [Example 108, (*S)-3-(-3-((7′-((3-Hydroxypropyl)(methyl)amino)-1′,1′-dioxidospiro[cyclopropane-1,4′-pyrido[2,3-b][1,4,5]oxathiazepin]-2′(3′H)-yl)methyl)-4-methylphenyl)-3-(8-methyl-3-(trifluoromethyl)-[1,2,4[triazolo[4,3-a]pyridine-7-yl)propanoic Acid]	6.39	> 9.00
Cc1ccc([C@H](CC(=O)O)c2ccn3c(C(F)(F)F)nnc3c2C)cc1CN1CC(C)(C)Oc2ccccc2S1(=O)=O (single isomer, unassigned) [Example 285, (*S)-3-(3-((4,4-Dimethyl-1,1-dioxido-3,4-dihydro-2H-benzo[b][1,4,5]oxathiazepin-2-yl)methyl)-4-methylphenyl)-3-(8-methyl-3-(trifluoromethyl)-[1,2,4]triazolo[4,3-a]pyridin-7-yl)propanoic Acid]	6.89	8.96
CC[C@@H]1CN(Cc2cc([C@H](CC(=O)O)c3ccn4c(C(F)(F)F)nnc4c3)ccc2C)S(=O)(=O)c2cccnc2O1 (single isomer, unassigned) [Example 257, (*S)-3-(3-(((R)-4-Ethyl-1,1-dioxido-3,4-dihydro-2H-pyrido[2,3-b][1,4,5]oxathiazepin-2-yl)methyl)-4-methylphenyl)-3-(3-(trifluoromethyl)-[1,2,4]triazolo[4,3-a]pyridin-7-yl)propanoic Acid]	6.24	> 9.00
Cc1ccc(C(CC(=O)O)c2ccc3c(nnn3C3CC3)c2C)cc1CN1C[C@]2(C)CCCN2c2ncccc2S1(=O)=O (mixture of isomers) [Example 218, (R/S)-3-(1-Cyclopropyl-4-methyl-1H-benzo[d][1,2,3]triazol-5-yl)-3-(4-methyl-3-(((*S)-7a-methyl-5,5-dioxido-7a,8,9,10-tetrahydropyrido[2,3-f]pyrrolo[2,1-d][1,2,5]thiadiazepin-6(7H)-yl)methyl)phenyl)propanoic Acid]	8.18	> 9.00
Cc1ccc([C@H](c2ccn3c(C(F)F)nnc3c2C)C(C)(C)C(=O)O)nc1CN1CC2(CC2)Oc2nc(OCCN3CCCC3)c(C)cc2S1(=O)=O (single isomer, unassigned) [Example 359, (*R)-3-(3-(Difluoromethyl)-8-methyl-[1,2,4]triazolo[4,3-a]pyridin-7-yl)-2,2-dimethyl-3-(5-methyl-6-((8′-methyl-1′,1′-dioxido-7′-(2-(pyrrolidin-1-yl)ethoxy)spiro[cyclopropane-1,4′-pyrido[2,3-b][[,4,5]oxathiazepin]-2′(3′H)-yl)methyl)pyridin-2-yl)propanoic Acid]	5.91	> 9.00
Cc1ccc([C@H](c2ccn3c(C(F)(F)F)nnc3c2C)C(C)(C)C(=O)O)nc1CN1CC2(CCOCC2)Oc2nc(OCCN3CCOCC3)ccc2S1(=O)=O (single isomer, unassigned) [Example 326, (*R)-2,2-Dimethyl-3-(8-methyl-3-(trifluoromethyl)-[1,2,4]triazolo[4,3-a]pyridin-7-yl)-3-(5-methyl-6-((7′-(2-morpholinoethoxy)-1′,1′-dioxido-2,3,5,6-tetrahydrospiro[pyran-4,4′-pyrido[2,3-b][1,4,5]oxathiazepin]-2′(3′H)-yl)methyl)pyridin-2-yl)propanoic Acid]	5.34	5.49
CCn1nnc2c(C)c([C@@H](CC(=O)O)c3ccc(C)c(CN4C[C@H]5CCCCN5c5ncccc5S4(=O)=O)n3)ccc21 (single isomer, unassigned) [Example 306, (*R)-3-(6-(((*R)-5,5-Dioxido-7,7a,8,9,10,11-hexahydro-6H-dipyrido[2,1-d:2′,3′-f][1,2,5]thiadiazepin-6-yl)methyl)-5-methylpyridin-2-yl)-3-(1-ethyl-4-methyl-1H-benzo[d][1,2,3]triazol-5-yl)propanoic Acid]	8.03	> 9.00
Cc1cnc2c(c1)S(=O)(=O)N(Cc1cc([C@@H](c3ccc4c(nnn4C4CC4)c3C)C(C)(C)C(=O)O)cnc1C)CC1(CCOCC1)O2 (single isomer, unassigned) [Example 229, (*R)-3-(1-Cyclopropyl-4-methyl-1H-benzo[d][1,2,3]triazol-5-yl)-2,2-dimethyl-3-(6-methyl-5-((8′-methyl-1′,1′-dioxido-2,3,5,6-tetrahydrospiro[pyran-4,4′-pyrido[2,3-b][1,4,5]oxathiazepin]-2′(3′H)-yl)methyl)pyridin-3-yl)propanoic Acid]	5.61	4.77
